Data on two molecules can be found in ChEMBL document CHEMBL1140370, “Molecular modeling and molecular dynamics simulation of the human A2B adenosine receptor. The study of the possible binding modes of the A2B receptor antagonists” (J Med Chem, 2005).

The target of the test is T1, Adenosine receptor A2b (Homo sapiens, UniProt P29275).
T1 sequence (P29275 whole entry): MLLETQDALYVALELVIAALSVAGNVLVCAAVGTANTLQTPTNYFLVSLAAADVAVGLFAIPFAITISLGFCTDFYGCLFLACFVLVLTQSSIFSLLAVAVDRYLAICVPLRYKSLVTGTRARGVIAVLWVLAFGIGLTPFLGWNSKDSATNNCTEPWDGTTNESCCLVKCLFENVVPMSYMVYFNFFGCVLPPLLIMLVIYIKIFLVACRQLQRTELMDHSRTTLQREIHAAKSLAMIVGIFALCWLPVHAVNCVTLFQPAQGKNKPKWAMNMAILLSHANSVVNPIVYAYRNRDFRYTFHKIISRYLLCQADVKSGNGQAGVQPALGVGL
The experiment in a line: Antagonist activity against human Adenosine A2b receptor. Type of test: functional.

Structures are written as SMILES.

What is called Ki is a measure of affinity in units of concentration, obtained from inhibition or displacement. Molecule `CCCn1c(=O)c2[nH]c(-c3ccc(OCC(=O)Nc4ccc(F)cc4)nc3)nc2n(CCC)c1=O` came in with a Ki of 4.8 nM.
For `CCCn1c(=O)c2[nH]c(-c3cc(OCC(=O)O)no3)nc2n(CCC)c1=O` the value was 18 nM.
